Measurements published in patent US9675701B2, “Coloured disinfectant preparation based on bispyridiniumalkane” (L'AIR LIQUIDE, SOCIETE ANONYME POUR L'ETUDE ET …, priority 2014, dated 2017).

Columns and labels:
[1] = Efficacy of octenidine in Octeniderm with added dye
Source text: However, blue dyes are not accepted by the market on account of the poor visibility of the vessels under the skin.

S. aureus ATCC 6538 = experiment: Method A: remanence effect of the dried preparation on tiles, germ count determination; type: cell-based; settings: preliminary experiments with a new type of method
Protocol: No in-vitro method was hitherto known for being able to rapidly examine (i.e. screen) the potential impairment of the remanent effect of antiseptic active ingredients due to added dyes, and specifically in particular in the presence of large amounts of solvents, such as alcohols. […] 0.2 ml of the test preparation was spread to the edge on a tile measuring 5×5 cm and left to dry optically. Here, solvents evaporate and the antiseptic active ingredient (octenidine was tested) remains on the tile. Then, 0.1 ml of bacteria suspension (test germ S. aureus ATCC 6538, starting germ count of the solution 10^6 CFU/ml, on the tile then 10^5 CFU/ml) is applied to an area of 3×3 cm on the tile. After the corresponding contact time, the tile is transferred to a container filled with glass beads (diameter 3-4 mm) and 10 ml of neutralization solution (TLSH) and shaken for 2 minutes on a horizontal shaker at 200 rpm. Finally, a germ count determination is performed by means of dilution series. The dilution stages 10^0, 10^−1, 10^−2 and 10^−3 are plated out. The agar plates are incubated for 24-48 hours at 36±1° C. The CFU/ml resulting therefrom is used to calculate the logarithmic reduction factor (RF) for the preparations and the water control. A high […] reduction factor means good bactericidal efficacy of the preparation. […]

CCN(CC)c1ccc(C(=C2C=CC(=[N+](CC)CC)C=C2)c2cc(O)c(S(=O)(=O)[O-])cc2S(=O)(=O)[O-])cc1.CCN(CC)c1ccc(C(=C2C=CC(=[N+](CC)CC)C=C2)c2cc(O)c(S(=O)(=O)[O-])cc2S(=O)(=O)[O-])cc1.[Ca+2] [Patent Blue V]
restriction of the efficacy of the octenidine in Octeniderm by the dye [1]: no restriction of the efficacy

O=C([O-])c1ccccc1-c1c2ccc(=O)cc-2oc2cc([O-])ccc12.[Na+].[Na+] [uranine]
remanence effect of octenidine in preparations which comprise the dye (S. aureus ATCC 6538): inhibited
